Columns and labels:
Type in all cases: cell-based
GLI1 = experiment: Quantitative RT-PCR of Hedgehog pathway mediators in SKOV3 cells
Protocol: (§1) Total RNA was isolated using Trizol reagent from ovarian cancer cell line monolayer and spheroids-forming cells according to the manufacturer instructions (Invitrogen Corporation, Carlsbad, Calif.) and cDNA was prepared using High Capacity Reverse Transcriptase Kit (Applied Biosystem, Foster City, Calif.). Real-time PCR was performed using a Bio-Rad iQ5 Real-time Detection system (Bio-Rad). All reactions were done as three independent replicates. All assays were done using the TaqMan Gene Expression Assays from Applied Biosystems. Primers and probes for the TaqMan system were selected from the Applied Biosystems website. [Gli1 assay ID: Hs01110766 ml, Patched (PTCH) assay ID: Hs00970980 ml. The relative expression mRNA levels of GLI1, and PTCH were normalized to internal control glyceraldehyde-3-phosphate dehydrogenase (assay ID: Hs99999905 ml) levels (2^−δδCT).
(§2) Quantitative realtime PCR (RT-PCR) was performed as described above. To assess the effects of inhibition of SMO by BMS-833923, levels of GLI1 and PTCH were measured by quantitative RT-PCR. SKOV3 ovarian cancer cell line was treated with 2.5 μM BMS-833923 for 24 hr and 48 hr and compared to untreated controls.

PTCH = experiment: as above
Protocol: as §1, §2

SKOV3 cells [1] = experiment: MTS cell survival with BMS-833923 plus chemotherapy, Calcusyn combination index
Protocol: An MTS in vitro assay was performed using chemotherapy agents commonly used for ovarian cancer (carboplatin, paclitaxel, gemcitabine, topotecan and liposomal doxorubicin) with or without BMS-833923. Ovarian cancer cells ES2, SKOV3, OV90 and TOV112D were seeded at a density of 4,000 cells/well in 96-well tissue culture plates. The following day, fresh medium was added to each well and treated with IC50 concentrations of BMS-833923 as well as the aforementioned chemotherapies and kept at 37° C. in a humidified 5% CO2 atmosphere. Every 24 hr, 20 μl/well of MTS reagent were added in 96 well plates and stored in 37° C. incubator for about 3 hr followed by absorbance reading at 490 nm. The assay was carried out up to 72 hrs at various concentrations described herein.
With a cross-diagonal multidrug treatment design, the combination index (CI) was calculated to determine mathematical synergy using the median effect method per Calcusyn software (Biosoft, Ferguson, Mo.). This software utilizes multiple drug dose-effect calculations using the Median Effect methods (Chou T. C., et al., Trends Pharmacol. Sci. 4, 450-454). […] The fraction of cells affected (Fa) by carboplatin and BMS-833923 was used to calculate dose response curves and the CI. Statistically Calcusyn quantifies phenomena such as synergism vs. additive effects as well as inhibition (antagonism). Calcusyn software defines synergy as a CI value<1 with the extent of synergism stratified as follows: Possible Synergy: 1.0-0.91; Moderate Synergy: […]; and Clear Synergy: 0.7-0.3. A CI=1 may be indicative of additivity; a CI>1 may be indicative of antagonism.
Combination indices were calculated to determine mathematical synergy using the median effect method per Calcusyn software (Biosoft, Ferguson, Mo.) as described above. Monolayers of SKOV3 cells were contacted with various chemotherapeutic agents, and BMS-833923 in combination with various chemotherapeutic agents. The chemotherapeutic agents included Carboplatin, Taxol™, Gemzar™, Topotecan (Hycamtim™), and Doxil™. The percentage survival of the contacted SKOV3 cells was measured over 72 hours. Synergistic effects were calculated statistically using Calcusyn™ Software. A combination index (CI) less than 1 indicates synergy; a CI equal to 1 indicates additivity; a CI greater than 1 indicated antagonism.
Combination indices were calculated to determine mathematical synergy using the median effect method per Calcusyn software (Biosoft, Ferguson, Mo.) as described above. […] Per prior definitions this represents Clear Synergy defined as CI<0.7. This level of synergy would result in a 2- to 14-fold reduction of carboplatin dose required with the addition of BMS-833923. (Table 5 and FIG. 9).
The dose reduction index (DRI) was determined for experimental values using the Calcusyn software package, with the relative CI and the fraction affected to determine the relative reduction in a dose to achieve similar effects with a single agent (Table 6).

ES2 cells = experiment: MTS IC50 dosage calculation with BMS-833923; conditions: Homo sapiens, ES-2; ES2 monolayer, MTS up to 72 hrs
Protocol: (§3) Ovarian cancer cells were seeded at a density of 4,000 cells/well in 96 well plates. The following day, fresh medium was added to each well and they were treated with BMS-833923 at a dose-escalation at the following doses 0, 0.1, 0.25, 0.5, 1, 2, 5, 10, and 20 μM. These cells were kept at 37° C. in a humidified 5% CO2 atmosphere. Every 24 hours, 20 μl/well of MTS reagent were added in 96 well plates and stored in 37° C. incubator for at least 3 hours followed by absorbance reading at 490 nm. The assay was carried out up to 72 hrs to obtain the IC50 concentrations of each agent.
(§4) IC50 dosage determinations were performed as described above. […] BMS-833923 IC50 doses were used for all related experiments for specific ovarian cancer cell lines.

SKOV3 cells [2] = experiment: MTS IC50 dosage calculation with BMS-833923; conditions: Homo sapiens, SK-OV-3; SKOV3 monolayer, MTS up to 72 hrs
Protocol: as §3, §4

OV90 cells = experiment: MTS IC50 dosage calculation with BMS-833923; conditions: Homo sapiens, OV-90; OV90 monolayer, MTS up to 72 hrs
Protocol: as §3, §4

TOV112D cells = experiment: MTS IC50 dosage calculation with BMS-833923; conditions: Homo sapiens; TOV112D monolayer, MTS up to 72 hrs
Protocol: as §3, §4

Structure (SMILES): CNCc1ccc(C)c(NC(=O)c2ccc(Nc3nc(-c4ccccc4)c4ccccc4n3)cc2)c1 [BMS-833923, N-{2-methyl-5-[(methylamino)methyl]phenyl}-4-[(4-phenylquinazolin-2-yl)amino]benzamide]
- decrease in GLI1 activity (RTQ) (GLI1; SKOV3, 2.5 μM, 24 hr and 48 hr, vs untreated): 10 fold
- downregulation of GLI1 protein compared to untreated controls (GLI1; as stated in the description): 5 fold
- PTCH activity compared to untreated controls (PTCH; SKOV3, 2.5 μM, 24 hr and 48 hr): down-regulation in activity
- downregulation of PTCH protein compared to untreated controls (PTCH; as stated in the description): 3 fold
- BMS-833923 DRI (SKOV3 cells [1]; fraction affected 16.6%): 2.314
- BMS-833923 single agent dose to achieve the fraction affected (SKOV3 cells [1]; fraction affected 16.6%): 9.2573 µM
- BMS-833923 DRI (SKOV3 cells [1]; fraction affected 29.1%): 3.223
- BMS-833923 single agent dose to achieve the fraction affected (SKOV3 cells [1]; fraction affected 29.1%): 12.8916 µM
- BMS-833923 DRI (SKOV3 cells [1]; fraction affected 38.4%): 3.120
- BMS-833923 single agent dose to achieve the fraction affected (SKOV3 cells [1]; fraction affected 38.4%): 15.6024 µM
- BMS-833923 DRI (SKOV3 cells [1]; fraction affected 41.8%): 3.330
- BMS-833923 single agent dose to achieve the fraction affected (SKOV3 cells [1]; fraction affected 41.8%): 16.6516 µM
- IC50 (ES2 cells): 4 µM
- IC50 (SKOV3 cells [2]): 7.5 µM
- IC50 (OV90 cells): 4 µM
- IC50 (TOV112D cells): 5 µM

Source: patent US20140309184A1, “METHODS AND COMPOSITIONS FOR THE TREATMENT OF OVARIAN CANCER” (UNIVERSITY OF SOUTH ALABAMA, priority 2011, published 2014)
